Experiments:
[1] = format: in vitro ADME, Dutch Belted rabbits; conditions: Dutch Belted, rabbit, 1 μM, pH 6
Experimental: Dutch Belted rabbits were euthanized with an overdose of sodium pentobarbital. The corneas were collected and homogenized in ice-cold potassium chloride solution (pH=7.4). The homogenate was centrifuged at 755×g for 30 min at 4° C. and aliquots of the supernatant were stored at or below −70° C. until metabolism experiments were conducted. Prior to storing the homogenates an aliquot was removed for determination of protein concentrations by calculating the 260 nm absorbance using a spectrophotometer. Human recombinant carboxylesterases were purchased from a commercial vendor (BD Gentest™, Bedford, Mass.)
All metabolic stability experiments were performed in triplicate in 96-well plate format. The final incubation mixture contained 1 μM test compound, 0.3 mg/mL corneal protein homogenate or 0.1 mg/mL human recombinant carboxylesterase mixture in a final volume of 0.5 mL 0.1M potassium phosphate buffer (pH=6.0). The final percentage of solvent in the incubation was less than 1.0% to prevent inhibition of enzymatic activity. Following a pre-incubation at 37° C., test article was added to initiate the reaction. At designated time points (typically less than 60 minutes to capture the linear range of metabolite formation), 0.05 mL aliquots were removed from the incubation mixtures using a clean pipet tip and immediately placed in organic solvent to stop any esterase activity. The hydrolysis to the metabolites was confirmed to be due to esterase activity and not chemical lability.
The samples were analyzed by liquid chromatography with mass spectrometry (LC-MS/MS) detection to determine the metabolite concentrations resulting from the metabolism of the hybrid compounds. Internal standards were used to compensate for variability from sample processing, chromatographic elution, mass spectrometer response and ion suppression by matrix components.

[2] = Ocular pharmacokinetics following a single topical ophthalmic administration in rabbits; format: in vivo, New Zealand White Rabbits; conditions: single topical ocular dose of 0.4% (w/v) solution; cornea, aqueous humor, conjunctiva, eyelid margin; FIG. 2
Experimental: Rabbits were dosed once by ocular instillation to both eyes with each compound formulated in a 0.4% (w/v) solution. At 0.25, 0.5, 1, 2, 6, and 10 hours post dose cornea, aqueous humor, conjunctiva and eyelid margin were collected and stored at approximately −70° C. until bioanalysis. Ocular tissue samples were analyzed by liquid chromatography with mass spectrometry (LC-MS/MS) detection to determine the parent (i.e., ester linked hybrids) and metabolite (i.e. steroid and antibiotic) concentrations resulting from the metabolism of ester linked hybrids. Internal standards were used to compensate for variability from sample processing, chromatographic elution, mass spectrometer response and ion suppression by matrix components.

Row | Compound | Rate of formation Metabolite 1 (Betamethasone) [1] [nM/min/mg] | Rate of formation Metabolite 2 (Gatifloxacin) [1] [nM/min/mg] | Rate of formation Metabolite 1 (Dexamethasone) [1] [nM/min/mg] | Rate of formation Metabolite 1 (Prednisolone) [1] [nM/min/mg] | uptake into ocular tissues and cleavage to Prednisolone and Gatifloxacin (AUC0-10hr) [2]
1 | COc1c(N2CCNC(C)C2)c(F)cc2c(=O)c(C(=O)OCC(=O)[C@]3(O)[C@H](C)C[C@@H]4[C@H]5CCC6=CC(=O)C=C[C@@]6(C)[C@]5(F)[C@H](O)C[C@]43C)cn(C3CC3)c12 (relative stereo) [Compound 1, 2-[(8R,9S,10R,11R,13R,14R,16R,17S)-9-fluoro-11,17-dihydroxy-10,13,16-trimethyl-3-oxo-6,7,8,9,10,11,12,13,14,15,16,17-dodecahydro-3H-cyclopenta[a]phenanthren-17-yl]-2-oxoethyl rel-1-cyclopropyl-6-fluoro-8-methoxy-7-(3-methylpiperazin-1-yl)-4-oxo-1,4-dihydroquinoline-3-carboxylate] | 7.27 ± 0.58 | 4.45 ± 0.28 | – | – | –
2 | COc1c(N2CCNC(C)C2)c(F)cc2c(=O)c(C(=O)OCC(=O)[C@]3(O)[C@@H](C)C[C@@H]4[C@H]5CCC6=CC(=O)C=C[C@@]6(C)[C@]5(F)[C@H](O)C[C@]43C)cn(C3CC3)c12 (relative stereo) [Compound 7, 2-[(8R,9S,10R,11R,13R,14R,16S,17S)-9-fluoro-11,17-dihydroxy-10,13,16-trimethyl-3-oxo-6,7,8,9,10,11,12,13,14,15,16,17-dodecahydro-3H-cyclopenta[a]phenanthren-17-yl]-2-oxoethyl rel-1-cyclopropyl-6-fluoro-8-methoxy-7-(3-methylpiperazin-1-yl)-4-oxo-1,4-dihydroquinoline-3-carboxylate] | – | 4.93 ± 0.48 | 7.31 ± 0.62 | – | –
3 | COc1c(N2CCNC(C)C2)c(F)cc2c(=O)c(C(=O)OCC(=O)[C@]3(O)CC[C@@H]4[C@H]5CCC6=CC(=O)C=C[C@@]6(C)[C@@H]5[C@H](O)C[C@]43C)cn(C3CC3)c12 (relative stereo) [Compound 12, 2-[(8R,9R,10S,11R,13R,14R,17S)-11,17-dihydroxy-10,13-dimethyl-3-oxo-6,7,8,9,10,11,12,13,14,15,16,17-dodecahydro-3H-cyclopenta[a]phenanthren-17-yl]-2-oxoethyl rel-1-cyclopropyl-6-fluoro-8-methoxy-7-(3-methylpiperazin-1-yl)-4-oxo-1,4-dihydroquinoline-3-carboxylate] | – | 3.46 ± 0.50 | – | 6.02 ± 0.63 | taken up into rabbit ocular tissues and enzymatically hydrolyzed to the individual antibiotic and steroid

From patent US9402912B2, “Antibiotic conjugates directly linked with steroid drugs” (Allergan, Inc., priority 2013, dated 2016)
